# From patent publication US20070292385A1, “Phospholipase Inhibitors Localized in the Gastrointestinal Lumen” (priority 2004, published 2007)
# Like-named read-outs stand apart in the source and are kept apart here.
# Key:
# Caco-2 monolayers [1] = test system: Caco-2 monolayers
# PL A2 = details: cited from earlier work
# Porcine PLA2 IB = biological target: T1, Porcine PLA2 IB (Sus scrofa, UniProt P00592); experiment: continuous fluorimetric assay for PLA2 activity (PPyrPG vesicles); format: biochemical; details: 37° C.
# T1 construct: purchased
# Description: A continuous fluorimetric assay for PLA2 activity described in the literature was used to determine IC (Leslie, C C and Gelb, M H (2004) Methods in Molecular Biology “Assaying phospholipase A2 activity”, 284: 229-242, Singer, A G, et al. (2002) Journal of Biological Chemistry “Interfacial kinetic and binding properties of the complete set of human and mouse groups I, II, V, X, and XII secreted phospholipases A2”, 277: 48535-48549, Bezzine, S, et al. (2000) Journal of Biological Chemistry “Exogenously added human group X secreted phospholipase A(2) but not the group IB, IIA, and V enzymes efficiently release arachidonic acid from adherent mammalian cells”, 275: 3179-3191) and references therein.
# Generally, this assay used a phosphatidylglycerol (or phosphatidylmethanol) substrate with a pyrene fluorophore on the terminal end of the sn-2 fatty acyl chain. […] The effect of a given inhibitor and inhibitor concentration on any given phospholipase can be determined. […]
# In this example, the procedure was performed as follows: • 1. […] The fluorescence was read using an excitation of 342 nm and an emission of 395 nm.
# In this example, the IC50 was calculated using the BioDataFit 1.02 (Four Parameter Model) software package. […]
# [2] = pharmokinetic study, IV and oral; format: in vivo, mice; details: for AUC(0-inf) / Cmax / Tmax / half-life: mouse, plasma; for half-life: read-out: t½ (converted)
# Method: This example characterized ILY-4001 [2-(3-(2-amino-2-oxoacetyl)-1-(biphenyl-2-ylmethyl)-2-methyl-1H-indol-4-yloxy)acetic acid], alternatively referred to herein as methyl indoxam, with respect to activity, as determined by IC50 assay (Example 1B-1), with respect to cell absorbtion, as determined by in-vitro Caco-2 assay (Example 1B-2) and with respect to bioavailability, as determined using in-vivo mice studies (Example 1B-3).
# Bioavailability was calculated as a ratio of AUC-oral/AUC-intravenous (IV). To determine this ratio, a first set of subject animals were given a measured intravenous (IV) dose of ILY-4001, followed by a determination of ILY-4001 levels in the blood at various time points after administration (e.g., 5 minutes through 24 hours). Another second set of animals was similarly dosed using oral administration, with blood levels of ILY-4001 determined at various time points after administration (e.g., 30 minutes through 24 hours). The level of ILY-4001 in systemic circulation were determined by generally accepted methods (for example as described in Evans, G., A Handbook of Bioanalysis and Drug Metabolism. Boca Raton, CRC Press (2004)). Specifically, […]/mass spectrometry/mass spectrometry (LC/MS/MS) analytical methods were used to quantitate plasma concentrations of ILY-4001 after oral and intravenous administration. Pharmacokinetic parameters that were measured include Cmax, AUC, tmax, t1/2, and F (bioavailability).
# In this procedure, ILY-4001 was dosed at 3 mg/kg IV and 30 mg/kg oral. […] This indicated about a 72% level of non-absorption of ILY-4001 from the GI tract into systemic circulation.
# [3] = in-vivo study on high fat/high sucrose diabetogenic diet (Example 10); set-up: species or system C57BL/6 mice; details: for fasting glucose levels: low dose 25 mg/kg/day
# Method: ILY-4001 (FIG. 5) was evaluated as a PLA2 IB inhibitor in a set of experiments using wild-type mice and genetically deficient PLA2 (−/−) mice (also referred to herein as PLA2 knock-out (KO) mice). In these experiments, wild-type and PLA2 (−/−) mice were maintained on a high fat/high sucrose diet, details of which are described below.
# Briefly, four groups were set up, each having six mice. Three of the groups included six wild-type PLA2 (+/+) mice in each group (eighteen mice total), and one of the groups included six genetically deficient PLA2 (−/−) mice. One of the wild-type groups was used as a wild-type control group, and was not treated with ILY-4001. The other two wild-type groups were treated with ILY-4001—one group at a lower dose (indicated as “L” in Table 1) of 25 mg/kg/day, and the other at a higher dose (indicated as “H” in Table 1) of 90 mg/kg/day. The group comprising the PLA2 (−/−) mice was used as a positive control group.
# The experimental protocol used in this study was as follows. The four groups of mice, including wild type and isogenic PLA2 (−/−) C57BL/J mice were acclimated for three days on a low fat/low carbohydrate diet. After the three day acclimation phase, the animals were fasted overnight and serum samples taken to establish baseline plasma cholesterol, triglyceride, and glucose levels, along with baseline body weight. The mice in each of the treatment groups were then fed a high fat/high sucrose diabetogenic diet (Research Diets D12331). 1000 g of the high fat/high sucrose D12331 diet was composed of casein (228 g), DL-methionine (2 g), maltodextrin 10 (170 g), sucrose (175 g), soybean oil (25 g), hydrogenated coconut oil (333.5 g), mineral mix S10001 (40 g), sodium bicarbonate (10.5 g), potassium citrate (4 g), vitamin mix V10001 (10 g), and choline bitartrate (2 g). This diet was supplemented with ILY-4001 treatments such that the average daily dose of the compound ingested by a 25 g mouse was: 0 mg/kg/day (wild-type control group and PLA2 (−/−) control group); 25 mg/kg/day (low-dose wild-type treatment group), or 90 mg/kg/day (high-dose wild-type treatment group). The animals were maintained on the high fat/high sucrose diet, with the designated ILY-4001 supplementation, for a period of ten weeks.
# Body weight measurements were taken for all animals in all treatment and control groups at the beginning of the treatment period and at 4 weeks and 10 weeks after initiation of the study. (See Example 10A). Blood draws were also taken at the beginning of the treatment period (baseline) and at 4 weeks and 10 weeks after initiation of the study, in order to determine fasting glucose (See Example 10B). Cholesterol and triglyceride levels were determined from blood draws taken at the beginning of the treatment (baseline) and at ten weeks. (See Example 10C).
# Caco-2 monolayers [4] = experiment: Caco-2 permeability study; details: apical to basolateral
# [5] = low and high doses (25 and 90 mg/kg/day), 10 weeks
# T1 sequence (P00592 23-146): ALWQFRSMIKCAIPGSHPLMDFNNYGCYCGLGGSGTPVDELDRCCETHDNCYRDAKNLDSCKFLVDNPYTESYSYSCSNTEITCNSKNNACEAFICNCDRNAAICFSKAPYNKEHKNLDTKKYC
molecule,measurement,setting,value
Lucifer Yellow,apparent permeability,Caco-2 monolayers [1],around 2.82×10^−7+/−0.37×10^−7 cm/s
CCC1=C(CC(N)=O)c2cc(OCCCP(=O)(O)O)ccc2C1Nc1ccccc1 (stereo not shown),IC50,PL A2,sub μM range
"Cc1c(C(=O)C(N)=O)c2c(OCC(=O)O)cccc2n1Cc1ccccc1-c1ccccc1 [ILY-4001, 2-(3-(2-amino-2-oxoacetyl)-1-(biphenyl-2-ylmethyl)-2-methyl-1H-indol-4-yloxy)acetic acid]",IC50,Porcine PLA2 IB,62 nM
same,AUC(0-inf),"[2]; iv, 3 mg/kg",2760 ng·h/mL
same,Cmax,"[2]; iv, 3 mg/kg",3170 ng/mL
same,Tmax,"[2]; iv, 3 mg/kg",0.083 h
same,AUC(0-t),"[2]; mouse, plasma, iv, 3 mg/kg; read-out: AUC 0-24)",2790 ng·h/mL
same,half-life,"[2]; iv, 3 mg/kg",1.03 h
same,AUC(0-inf),"[2]; oral, 30 mg/kg",5730 ng·h/mL
same,Cmax,"[2]; oral, 30 mg/kg",2290 ng/mL
same,Tmax,"[2]; oral, 30 mg/kg",1 h
same,AUC(0-t),"[2]; mouse, plasma; oral, 30 mg/kg; read-out: AUC 0-24)",5950 ng·h/mL
same,half-life,"[2]; oral, 30 mg/kg",1.25 h
same,body weight gain compared to wild-type control group,"[3]; 25 mg/kg/d and 90 mg/kg/d in diet, week 4 and week 10",significantly reduced
same,plasma levels of cholesterol,[3]; [5],substantially reduced
same,plasma levels of triglycerides,[3]; [5],substantially reduced
same,fasting glucose levels,[3]; week four,moderately beneficial effect
same,fasting glucose levels,[3]; week ten,beneficial effect was not observed
same,apparent permeability,Caco-2 monolayers [4],around 1.66×10^−7 cm/s
